# Literature values in patent US10466244B2, “Methods and materials for identifying therapeutic response in chronic myeloid leukemia” (RAJIV GANDHI CENTRE FOR BIOTECHNOLOGY, priority 2013, dated 2019).
# Tested on: BCR-ABL
# Conditions: relative to imatinib
compound,measurement,value
"Cc1cn(-c2cc(NC(=O)c3ccc(C)c(Nc4nccc(-c5cccnc5)n4)c3)cc(C(F)(F)F)c2)cn1 [Nilotinib, nilotinib]",increased potency compared with imatinib against BCR-ABL,20- to 30 fold
